Reference: PubChem BioAssay (NCI)
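Assay format: 96-well plates, 48-hour exposure. At the GI50, growth is halved. The concentration for full growth arrest is given as TGI.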

Key:
Experiment in all cases: NCI anticancer screen, dose series, 48 h
LOX IMVI melanoma = tested on: LOX IMVI melanoma
BT-549 breast = tested on: BT-549 breast
NCI-H460 lung = tested on: NCI-H460 lung
OVCAR-8 ovarian = tested on: OVCAR-8 ovarian
MDA-N = tested on: MDA-N
SN12C renal = tested on: SN12C renal
UO-31 renal = tested on: UO-31 renal
SNB-75 CNS = tested on: SNB-75 CNS
OVCAR-5 ovarian = tested on: OVCAR-5 ovarian
OVCAR-3 ovarian = tested on: OVCAR-3 ovarian
IGROV1 ovarian = tested on: IGROV1 ovarian
SK-MEL-5 melanoma = tested on: SK-MEL-5 melanoma
CCRF-CEM leukemia = tested on: CCRF-CEM leukemia
MDA-MB-435 = tested on: MDA-MB-435
HOP-62 NSCLC = tested on: HOP-62 NSCLC
NCI-H226 lung = tested on: NCI-H226 lung
A498 renal = tested on: A498 renal
SK-MEL-2 melanoma = tested on: SK-MEL-2 melanoma
T-47D breast = tested on: T-47D breast
SNB-19 CNS = tested on: SNB-19 CNS
NCI-H522 lung = tested on: NCI-H522 lung
MDA-MB-231 breast = tested on: MDA-MB-231 breast
NCI-H23 lung = tested on: NCI-H23 lung
MCF7 breast = tested on: MCF7 breast
SK-MEL-28 melanoma = tested on: SK-MEL-28 melanoma
HCT-15 colon = tested on: HCT-15 colon
K-562 leukemia = tested on: K-562 leukemia
A549 NSCLC = tested on: A549 NSCLC
SW-620 colon = tested on: SW-620 colon
RXF 393 renal = tested on: RXF 393 renal
EKVX NSCLC = tested on: EKVX NSCLC
M14 melanoma = tested on: M14 melanoma
PC-3 prostate = tested on: PC-3 prostate
HOP-92 NSCLC = tested on: HOP-92 NSCLC
CAKI-1 renal = tested on: CAKI-1 renal
SR leukemia = tested on: SR leukemia
SK-OV-3 ovarian = tested on: SK-OV-3 ovarian
DU-145 prostate = tested on: DU-145 prostate
NCI/ADR-RES ovarian = tested on: NCI/ADR-RES ovarian
HCC-2998 colon = tested on: HCC-2998 colon
KM12 colon = tested on: KM12 colon
HCT-116 colon = tested on: HCT-116 colon
COLO 205 colon = tested on: COLO 205 colon
SF-295 CNS = tested on: SF-295 CNS
SF-268 CNS = tested on: SF-268 CNS
HS 578T breast = tested on: HS 578T breast
MALME-3M melanoma = tested on: MALME-3M melanoma
RPMI-8226 leukemia = tested on: RPMI-8226 leukemia
786-0 renal = tested on: 786-0 renal
HT29 colon = tested on: HT29 colon
UACC-62 melanoma = tested on: UACC-62 melanoma
UACC-257 melanoma = tested on: UACC-257 melanoma
OVCAR-4 ovarian = tested on: OVCAR-4 ovarian
ACHN renal = tested on: ACHN renal
TK-10 renal = tested on: TK-10 renal
HL-60(TB) leukemia = tested on: HL-60(TB) leukemia
SF-539 CNS = tested on: SF-539 CNS
U251 CNS = tested on: U251 CNS
MOLT-4 leukemia = tested on: MOLT-4 leukemia

For NS(=O)(=O)c1ccc(/C=C/c2ccc(O)c(O)c2)cc1, the GI50 (LOX IMVI melanoma) was 29.9 µM, the TGI (LOX IMVI melanoma) was over 100 µM and the GI50 (BT-549 breast) was 4.13 µM. For the same compound, the TGI (BT-549 breast) was 27.1 µM, the TGI (NCI-H460 lung) was over 100 µM and the GI50 (OVCAR-8 ovarian) was 16.7 µM. It also gave a TGI (OVCAR-8 ovarian) of 56.5 µM, a TGI (MDA-N) of 65.7 µM and a TGI (SN12C renal) of 60.9 µM. It also gave a TGI (UO-31 renal) of 35 µM, a TGI (SNB-75 CNS) of 58.3 µM and a TGI (OVCAR-5 ovarian) of over 100 µM. For the same compound, the TGI (OVCAR-3 ovarian) was over 100 µM, the GI50 (IGROV1 ovarian) was 4.49 µM and the TGI (IGROV1 ovarian) was 40.1 µM. The TGI (SK-MEL-5 melanoma) was 29.6 µM, the GI50 (CCRF-CEM leukemia) was 4.79 µM and the TGI (CCRF-CEM leukemia) was over 100 µM. The GI50 (MDA-MB-435) was 16.8 µM, the TGI (MDA-MB-435) was 51.5 µM and the TGI (HOP-62 NSCLC) was over 100 µM. The GI50 (NCI-H226 lung) was 14 µM, the TGI (NCI-H226 lung) was 60.2 µM and the TGI (A498 renal) was over 100 µM. For the same compound, the TGI (SK-MEL-2 melanoma) was 62.8 µM, the TGI (T-47D breast) was 53.1 µM and the TGI (SNB-19 CNS) was over 100 µM. It also gave a GI50 (NCI-H522 lung) of 2.25 µM, a TGI (NCI-H522 lung) of 4.79 µM and a TGI (MDA-MB-231 breast) of 64.6 µM. The GI50 (NCI-H23 lung) was 25.9 µM, the TGI (NCI-H23 lung) was 79.3 µM and the TGI (MCF7 breast) was 51.9 µM. It also gave a TGI (SK-MEL-28 melanoma) of 78.6 µM, a GI50 (HCT-15 colon) of 13.9 µM and a TGI (HCT-15 colon) of over 100 µM. It also gave a GI50 (K-562 leukemia) of 35.3 µM, a TGI (K-562 leukemia) of over 100 µM and a GI50 (A549 NSCLC) of 22.3 µM. The TGI (A549 NSCLC) was over 100 µM, the TGI (SW-620 colon) was over 100 µM and the TGI (RXF 393 renal) was over 100 µM. The TGI (EKVX NSCLC) was 64 µM, the TGI (M14 melanoma) was over 100 µM and the TGI (PC-3 prostate) was 83.5 µM. It also gave a GI50 (HOP-92 NSCLC) of 15.8 µM, a TGI (HOP-92 NSCLC) of 47.9 µM and a GI50 (CAKI-1 renal) of 29.1 µM. For the same compound, the TGI (CAKI-1 renal) was over 100 µM, the GI50 (SR leukemia) was 12.7 µM and the TGI (SR leukemia) was 51.3 µM. The TGI (SK-OV-3 ovarian) was 48.8 µM, the TGI (DU-145 prostate) was over 100 µM and the TGI (NCI/ADR-RES ovarian) was 71.7 µM. The TGI (HCC-2998 colon) was 41.7 µM, the GI50 (KM12 colon) was 18.2 µM and the TGI (KM12 colon) was 48.9 µM. For the same compound, the TGI (HCT-116 colon) was over 100 µM, the TGI (COLO 205 colon) was 53.8 µM and the TGI (SF-295 CNS) was 74.3 µM. It also gave a GI50 (SF-268 CNS) of 18.2 µM, a TGI (SF-268 CNS) of 47.3 µM and a GI50 (HS 578T breast) of 25.6 µM. For the same compound, the TGI (HS 578T breast) was 92.8 µM, the TGI (MALME-3M melanoma) was over 100 µM and the GI50 (RPMI-8226 leukemia) was 9.16 µM. For the same compound, the TGI (RPMI-8226 leukemia) was 73.3 µM, the TGI (786-0 renal) was over 100 µM and the GI50 (HT29 colon) was 35.4 µM. The TGI (HT29 colon) was over 100 µM, the GI50 (UACC-62 melanoma) was 23.3 µM and the TGI (UACC-62 melanoma) was 42.2 µM. It also gave a TGI (UACC-257 melanoma) of over 100 µM, a GI50 (OVCAR-4 ovarian) of 11.6 µM and a TGI (OVCAR-4 ovarian) of 27.2 µM. It also gave a GI50 (ACHN renal) of 20.4 µM, a TGI (ACHN renal) of over 100 µM and a TGI (TK-10 renal) of over 100 µM. It also gave a GI50 (HL-60(TB) leukemia) of 16.3 µM, a TGI (HL-60(TB) leukemia) of over 100 µM and a GI50 (SF-539 CNS) of 14.2 µM. It also gave a TGI (SF-539 CNS) of 40.2 µM, a GI50 (U251 CNS) of 16.3 µM and a TGI (U251 CNS) of 46.9 µM. The GI50 (MOLT-4 leukemia) was 12.8 µM and the TGI (MOLT-4 leukemia) was 53.7 µM.
